In ChEMBL document CHEMBL3751666, “Efficiently functionalized oxacalix[4]arenes: Synthesis, characterization and exploration of their biological profile as novel HDAC inhibitors” (2016):
Values after ≈ are worked out from the molar mass of the structure shown. Counter-ions that a name gives are not always drawn.

How the values were obtained:
Assay type in all cases: functional
[1] = system: Escherichia coli; assay: Antibacterial activity against Escherichia coli by broth micro-dilution method
[2] = system: Pseudomonas aeruginosa; assay: Antibacterial activity against Pseudomonas aeruginosa by broth micro-dilution method
[3] = system: Staphylococcus aureus; assay: Antibacterial activity against Staphylococcus aureus by broth micro-dilution method
[4] = system: Streptococcus pyogenes; assay: Antibacterial activity against Streptococcus pyogenes by broth micro-dilution method
[5] = system: Candida albicans; assay: Antifungal activity against Candida albicans by broth micro-dilution method
[6] = system: Aspergillus niger; assay: Antifungal activity against Aspergillus niger by broth micro-dilution method
[7] = system: Aspergillus clavatus; assay: Antifungal activity against Aspergillus clavatus by broth micro-dilution method
[8] = system: HeLa; assay: Cytotoxicity against human HeLa cells; conditions: for CC50: read-out: LC50 (the source's name)

## O=C(COc1cc2cc(c1)Oc1cc(c([N+](=O)[O-])cc1[N+](=O)[O-])Oc1cc(OCC(=O)Nc3nc4ccc([N+](=O)[O-])cc4s3)cc(c1)Oc1cc(c([N+](=O)[O-])cc1[N+](=O)[O-])O2)Nc1nc2ccc([N+](=O)[O-])cc2s1
[1]
  MIC: 12.5 µg/mL (≈ 11.9 µM)
[2]
  MIC: 50 µg/mL (≈ 47.6 µM)
[3]
  MIC: 1.75 µg/mL (≈ 1.67 µM)
[4]
  MIC: 1.75 µg/mL (≈ 1.67 µM)
[5]
  MIC: 50 µg/mL (≈ 47.6 µM)
[6]
  MIC: 42.9 µg/mL (≈ 40.8 µM)
[7]
  MIC: 50 µg/mL (≈ 47.6 µM)
[8]
  GI50: 41.3 µM
  TGI: 93.2 µM
  CC50: > 100 µM

## GENTAMICIN
[1]
  MIC: 0.005 µg/mL
[2]
  MIC: 1 µg/mL
[3]
  MIC: 0.025 µg/mL
[4]
  MIC: 0.05 µg/mL

## Cc1cccc2sc(NC(=O)COc3cc4cc(c3)Oc3cc(c([N+](=O)[O-])cc3[N+](=O)[O-])Oc3cc(OCC(=O)Nc5nc6c(C)cccc6s5)cc(c3)Oc3cc(c([N+](=O)[O-])cc3[N+](=O)[O-])O4)nc12
[1]
  MIC: 25 µg/mL (≈ 25.3 µM)
[2]
  MIC: 12.5 µg/mL (≈ 12.6 µM)
[3]
  MIC: 3.12 µg/mL (≈ 3.16 µM)
[4]
  MIC: 6.25 µg/mL (≈ 6.32 µM)
[5]
  MIC: 25 µg/mL (≈ 25.3 µM)
[6]
  MIC: 25 µg/mL (≈ 25.3 µM)
[7]
  MIC: 12.5 µg/mL (≈ 12.6 µM)
[8]
  GI50: 7.7 µM
  TGI: 13.4 µM
  CC50: > 100 µM

## O=C(COc1cc2cc(c1)Oc1cc(c([N+](=O)[O-])cc1[N+](=O)[O-])Oc1cc(OCC(=O)N(c3ccccc3)c3ccccc3)cc(c1)Oc1cc(c([N+](=O)[O-])cc1[N+](=O)[O-])O2)N(c1ccccc1)c1ccccc1
[1]
  MIC: 1.75 µg/mL (≈ 1.75 µM)
[2]
  MIC: 1 µg/mL (≈ 1 µM)
[3]
  MIC: 1.75 µg/mL (≈ 1.75 µM)
[4]
  MIC: 3.12 µg/mL (≈ 3.13 µM)
[5]
  MIC: 12.5 µg/mL (≈ 12.5 µM)
[6]
  MIC: 25 µg/mL (≈ 25 µM)
[7]
  MIC: 12.5 µg/mL (≈ 12.5 µM)
[8]
  GI50: 38.3 µM
  TGI: 82.2 µM
  CC50: > 100 µM

## COC1=CC(=O)C[C@@H](C)[C@]12Oc1c(Cl)c(OC)cc(OC)c1C2=O [GRISEOFULVIN]
[5]
  MIC: 50 µg/mL (≈ 142 µM)
[6]
  MIC: 10 µg/mL (≈ 28.3 µM)
[7]
  MIC: 10 µg/mL (≈ 28.3 µM)

## CC1(C)S[C@@H]2[C@H](NC(=O)[C@H](N)c3ccccc3)C(=O)N2[C@H]1C(=O)O [AMPICILLIN]
[1]
  MIC: 1 µg/mL (≈ 2.86 µM)
[3]
  MIC: 2 µg/mL (≈ 5.72 µM)
[4]
  MIC: 10 µg/mL (≈ 28.6 µM)

## COc1ccc2nc(NC(=O)COc3cc4cc(c3)Oc3cc(c([N+](=O)[O-])cc3[N+](=O)[O-])Oc3cc(OCC(=O)Nc5nc6ccc(OC)cc6s5)cc(c3)Oc3cc(c([N+](=O)[O-])cc3[N+](=O)[O-])O4)sc2c1
[1]
  MIC: 50 µg/mL (≈ 49 µM)
[2]
  MIC: 25 µg/mL (≈ 24.5 µM)
[3]
  MIC: 12.5 µg/mL (≈ 12.2 µM)
[4]
  MIC: 3.12 µg/mL (≈ 3.06 µM)
[5]
  MIC: 50 µg/mL (≈ 49 µM)
[6]
  MIC: 25 µg/mL (≈ 24.5 µM)
[7]
  MIC: 12.5 µg/mL (≈ 12.2 µM)
[8]
  GI50: 20.1 µM
  TGI: 39.4 µM
  CC50: > 100 µM

## O=[N+]([O-])c1cc([N+](=O)[O-])c2cc1Oc1cc(cc(OS(=O)(=O)c3cccc4cccnc34)c1)Oc1cc(c([N+](=O)[O-])cc1[N+](=O)[O-])Oc1cc(cc(OS(=O)(=O)c3cccc4cccnc34)c1)O2
[1]
  MIC: 6.25 µg/mL (≈ 6.49 µM)
[2]
  MIC: 12.5 µg/mL (≈ 13 µM)
[3]
  MIC: 3.12 µg/mL (≈ 3.25 µM)
[4]
  MIC: 12.5 µg/mL (≈ 13 µM)
[5]
  MIC: 25 µg/mL (≈ 26 µM)
[6]
  MIC: 50 µg/mL (≈ 51.9 µM)
[7]
  MIC: 25 µg/mL (≈ 26 µM)
[8]
  GI50: 12.8 µM
  TGI: 25.6 µM
  CC50: > 100 µM

## O=[N+]([O-])c1cc([N+](=O)[O-])c2cc1Oc1cc(cc(OS(=O)(=O)c3cccc4ccccc34)c1)Oc1cc(c([N+](=O)[O-])cc1[N+](=O)[O-])Oc1cc(cc(OS(=O)(=O)c3cccc4ccccc34)c1)O2
[1]
  MIC: 3.12 µg/mL (≈ 3.25 µM)
[2]
  MIC: 3.12 µg/mL (≈ 3.25 µM)
[3]
  MIC: 6.25 µg/mL (≈ 6.5 µM)
[4]
  MIC: 12.5 µg/mL (≈ 13 µM)
[5]
  MIC: 12.5 µg/mL (≈ 13 µM)
[6]
  MIC: 50 µg/mL (≈ 52 µM)
[7]
  MIC: 50 µg/mL (≈ 52 µM)
[8]
  GI50: 31.3 µM
  TGI: 61.3 µM
  CC50: > 100 µM

## O=C(COc1cc2cc(c1)Oc1cc(c([N+](=O)[O-])cc1[N+](=O)[O-])Oc1cc(OCC(=O)Nc3cccc4cccnc34)cc(c1)Oc1cc(c([N+](=O)[O-])cc1[N+](=O)[O-])O2)Nc1cccc2cccnc12
[1]
  MIC: 50 µg/mL (≈ 52.7 µM)
[2]
  MIC: 3.12 µg/mL (≈ 3.29 µM)
[3]
  MIC: 50 µg/mL (≈ 52.7 µM)
[4]
  MIC: 50 µg/mL (≈ 52.7 µM)
[5]
  MIC: 50 µg/mL (≈ 52.7 µM)
[6]
  MIC: 50 µg/mL (≈ 52.7 µM)
[7]
  MIC: 50 µg/mL (≈ 52.7 µM)
[8]
  GI50: 28.8 µM
  TGI: 59.2 µM
  CC50: > 100 µM

## CCn1cc(C(=O)O)c(=O)c2cc(F)c(N3CCNCC3)cc21 [NORFLOXACIN]
[1]
  MIC: 1 µg/mL (≈ 3.13 µM)
[2]
  MIC: 1 µg/mL (≈ 3.13 µM)
[3]
  MIC: 1 µg/mL (≈ 3.13 µM)
[4]
  MIC: 1 µg/mL (≈ 3.13 µM)

## O=C(COc1cc2cc(c1)Oc1cc(c([N+](=O)[O-])cc1[N+](=O)[O-])Oc1cc(OCC(=O)Nc3nc4ccc(Cl)cc4s3)cc(c1)Oc1cc(c([N+](=O)[O-])cc1[N+](=O)[O-])O2)Nc1nc2ccc(Cl)cc2s1
[1]
  MIC: 6.25 µg/mL (≈ 6.07 µM)
[2]
  MIC: 6.25 µg/mL (≈ 6.07 µM)
[3]
  MIC: 12.5 µg/mL (≈ 12.1 µM)
[4]
  MIC: 3.12 µg/mL (≈ 3.03 µM)
[5]
  MIC: 50 µg/mL (≈ 48.6 µM)
[6]
  MIC: 50 µg/mL (≈ 48.6 µM)
[7]
  MIC: 50 µg/mL (≈ 48.6 µM)
[8]
  GI50: 13.7 µM
  TGI: 28.6 µM
  CC50: > 100 µM

## O=C(COc1cc2cc(c1)Oc1cc(c([N+](=O)[O-])cc1[N+](=O)[O-])Oc1cc(OCC(=O)Nc3nc4ccccc4s3)cc(c1)Oc1cc(c([N+](=O)[O-])cc1[N+](=O)[O-])O2)Nc1nc2ccccc2s1
[1]
  MIC: 6.25 µg/mL (≈ 6.5 µM)
[2]
  MIC: 6.25 µg/mL (≈ 6.5 µM)
[3]
  MIC: 1 µg/mL (≈ 1.04 µM)
[4]
  MIC: 50 µg/mL (≈ 52 µM)
[5]
  MIC: 50 µg/mL (≈ 52 µM)
[6]
  MIC: 50 µg/mL (≈ 52 µM)
[7]
  MIC: 12.5 µg/mL (≈ 13 µM)
[8]
  GI50: 10.3 µM
  TGI: 19.4 µM
  CC50: > 100 µM

## O=C(COc1cc2cc(c1)Oc1cc(c([N+](=O)[O-])cc1[N+](=O)[O-])Oc1cc(OCC(=O)Nc3nc4ccc(Br)cc4s3)cc(c1)Oc1cc(c([N+](=O)[O-])cc1[N+](=O)[O-])O2)Nc1nc2ccc(Br)cc2s1
[1]
  MIC: 1 µg/mL (≈ 0.894 µM)
[2]
  MIC: 1.75 µg/mL (≈ 1.56 µM)
[3]
  MIC: 1 µg/mL (≈ 0.894 µM)
[4]
  MIC: 25 µg/mL (≈ 22.3 µM)
[5]
  MIC: 25 µg/mL (≈ 22.3 µM)
[6]
  MIC: 25 µg/mL (≈ 22.3 µM)
[7]
  MIC: 25 µg/mL (≈ 22.3 µM)
[8]
  GI50: 2.1 µM
  TGI: 4.6 µM
  CC50: > 100 µM

## O=C(COc1cc2cc(c1)Oc1cc(c([N+](=O)[O-])cc1[N+](=O)[O-])Oc1cc(OCC(=O)Nc3cccc4c3C(=O)c3ccccc3C4=O)cc(c1)Oc1cc(c([N+](=O)[O-])cc1[N+](=O)[O-])O2)Nc1cccc2c1C(=O)c1ccccc1C2=O
[1]
  MIC: 25 µg/mL (≈ 22.6 µM)
[2]
  MIC: 1.75 µg/mL (≈ 1.58 µM)
[3]
  MIC: 50 µg/mL (≈ 45.2 µM)
[4]
  MIC: 1 µg/mL (≈ 0.903 µM)
[5]
  MIC: 50 µg/mL (≈ 45.2 µM)
[6]
  MIC: 50 µg/mL (≈ 45.2 µM)
[7]
  MIC: 25 µg/mL (≈ 22.6 µM)
[8]
  GI50: 53.4 µM
  TGI: > 100 µM
  CC50: > 100 µM

## O=C(Oc1cc2cc(c1)Oc1cc(c([N+](=O)[O-])cc1[N+](=O)[O-])Oc1cc(OC(=O)c3cccc4ccccc34)cc(c1)Oc1cc(c([N+](=O)[O-])cc1[N+](=O)[O-])O2)c1cccc2ccccc12
[1]
  MIC: 1.75 µg/mL (≈ 1.97 µM)
[2]
  MIC: 1.75 µg/mL (≈ 1.97 µM)
[3]
  MIC: 50 µg/mL (≈ 56.3 µM)
[4]
  MIC: 12.5 µg/mL (≈ 14.1 µM)
[5]
  MIC: 25 µg/mL (≈ 28.1 µM)
[6]
  MIC: 12.5 µg/mL (≈ 14.1 µM)
[7]
  MIC: 12.5 µg/mL (≈ 14.1 µM)
[8]
  GI50: 16.3 µM
  TGI: 32.6 µM
  CC50: > 100 µM

## COc1cccc2c1C(=O)c1c(O)c3c(c(O)c1C2=O)C[C@@](O)(C(=O)CO)C[C@@H]3O[C@H]1C[C@H](N)[C@H](O)[C@H](C)O1 [DOXORUBICIN HYDROCHLORIDE]
[8]
  GI50: < 0.1 µM
  TGI: < 0.1 µM
  CC50: 95.5 µM

## NYSTATIN
[5]
  MIC: 10 µg/mL
[6]
  MIC: 10 µg/mL
[7]
  MIC: 10 µg/mL
